Measurements reported in EPA's CvTdb concentration-time database (doi:10.1093/toxsci/kfy020).

Legend:
Assay in all cases: concentration in plasma after dosing
rat [1] = conditions: dosed: S-Bioallethrin, 0.8000000000 mg/kg, iv, male, Sprague-Dawley
rat [2] = conditions: dosed: S-Bioallethrin, 4.0000000000 mg/kg, oral, male, Sprague-Dawley
rat [3] = conditions: dosed: S-Bioallethrin, 0.8000000000 mg/kg, iv, male, Sprague-Dawley; remark: listed apart in the source
rat [4] = conditions: dosed: S-Bioallethrin, 0.8000000000 mg/kg, iv, male, Sprague-Dawley; remark: listed apart in the source
rat [5] = conditions: dosed: S-Bioallethrin, male, Sprague-Dawley

Question: How did the concentration in plasma (rat [1]; 5 min) turn out when C=CCC1=C(C)[C@@H](OC(=O)[C@@H]2[C@@H](C=C(C)C)C2(C)C)CC1=O [S-Bioallethrin] was run?
Answer: Its concentration in plasma is 60.4 ng/mL.

Question: What about the concentration in plasma (rat [1]; 10 min) of the same molecule?
Answer: Its concentration in plasma is 43.5 ng/mL.

Question: What about the concentration in plasma (rat [1]; 0.5 h) of the same molecule?
Answer: Its concentration in plasma is 13.1 ng/mL.

Question: What about the concentration in plasma (rat [1]; 2 h) of the same molecule?
Answer: Its concentration in plasma is 6.7 ng/mL.

Question: And the concentration in plasma (rat [1]; 4 h)?
Answer: The concentration in plasma was 1.9 ng/mL.

Question: What about the concentration in plasma (rat [2]; 0.25 h) of the same molecule?
Answer: The concentration in plasma was 2.5 ng/mL.

Question: And the concentration in plasma (rat [2]; 0.5 h)?
Answer: Its concentration in plasma is 2.2 ng/mL.

Question: What about the concentration in plasma (rat [2]; 1 h) of the same molecule?
Answer: The concentration in plasma was 4.9 ng/mL.

Question: And the concentration in plasma (rat [3]; 10 min)?
Answer: Its concentration in plasma is 30.2 ng/mL.

Question: And the concentration in plasma (rat [3]; 0.5 h)?
Answer: Its concentration in plasma is 31.3 ng/mL.

Question: And the concentration in plasma (rat [3]; 1 h)?
Answer: Its concentration in plasma is 11 ng/mL.

Question: What about the concentration in plasma (rat [3]; 2 h) of the same molecule?
Answer: Its concentration in plasma is 2.5 ng/mL.

Question: And the concentration in plasma (rat [3]; 4 h)?
Answer: Its concentration in plasma is 1.6 ng/mL.

Question: And the concentration in plasma (rat [4]; 10 min)?
Answer: The concentration in plasma was 76.7 ng/mL.

Question: What about the concentration in plasma (rat [4]; 0.5 h) of the same molecule?
Answer: The concentration in plasma was 24.5 ng/mL.

Question: And the concentration in plasma (rat [4]; 1 h)?
Answer: Its concentration in plasma is 5.2 ng/mL.

Question: And the concentration in plasma (rat [4]; 2 h)?
Answer: The concentration in plasma was 6.9 ng/mL.

Question: And the concentration in plasma (rat [4]; 4 h)?
Answer: Its concentration in plasma is 2.9 ng/mL.

Question: And the concentration in plasma (rat [4]; 8 h)?
Answer: The concentration in plasma was 1.5 ng/mL.

Question: What about the concentration in plasma (rat [5]; 5 min, 0.8000000000 mg/kg, iv) of the same molecule?
Answer: The concentration in plasma was 19.2 ng/mL.

Question: And the concentration in plasma (rat [5]; 0.5 h, 0.8000000000 mg/kg, iv)?
Answer: The concentration in plasma was 2.7 ng/mL.

Question: And the concentration in plasma (rat [5]; 0.5 h, 4.0000000000 mg/kg, oral)?
Answer: Its concentration in plasma is 1.6 ng/mL.

Question: What about the concentration in plasma (rat [5]; 1 h, 0.8000000000 mg/kg, iv) of the same molecule?
Answer: The concentration in plasma was 3 ng/mL.

Question: And the concentration in plasma (rat [5]; 1 h, 4.0000000000 mg/kg, oral)?
Answer: The concentration in plasma was 6 ng/mL.

Question: What about the concentration in plasma (rat [5]; 2 h, 0.8000000000 mg/kg, iv) of the same molecule?
Answer: The concentration in plasma was 3.4 ng/mL.

Question: What about the concentration in plasma (rat [5]; 2 h, 4.0000000000 mg/kg, oral) of the same molecule?
Answer: Its concentration in plasma is 1.2 ng/mL.

Question: What about the concentration in plasma (rat [5]; 4 h, 0.8000000000 mg/kg, iv) of the same molecule?
Answer: Its concentration in plasma is 1.6 ng/mL.
